According to US20250204535A1, “Rodenticide” (priority 2022, published 2025):
Marks after values point to notes of the source that are not given here.

How the values were obtained:
[1] = dogs; study of 2020 (Seljetun et al); cited from earlier work
Caco-2 cells = assay: Caco-2 permeability assay (bi-directional); settings: positive control
Experimental: Cells were seeded on to Millipore Multiscreen Transwell plates at 1×10^5 cells/cm^2. The cells were cultured in DMEM and media was changed every two or three days. On day 20, the permeability study was performed. […] On the day of the assay, the monolayers were prepared by rinsing both basolateral and apical surfaces twice with Hanks Balanced Salt Solution (HBSS) at the desired pH warmed to 37° C. Cells were then incubated with HBSS at the desired pH in both apical and basolateral compartments for 40 min to stabilise physiological parameters.
The fluorescent integrity marker lucifer yellow was also included in the dosing solution. Analytical standards were prepared from test compound water dilutions and transferred to buffer, maintaining a ≤1% v/v water concentration. Assay buffer was composed of supplemented HBSS pH 7.4.
For assessment of apical to basolateral (A2B) permeability, HBSS was removed from the apical compartment and replaced with test compound dosing solution. The apical compartment insert was then placed into a companion plate containing fresh buffer (containing ≤1% v/v Water). For assessment of B2A permeability, HBSS was removed from the companion plate and replaced with test compound dosing solution. Fresh buffer (containing ≤1% v/v Water) was added to the apical compartment insert, which was then placed into the companion plate.
At 120 min, the apical compartment inserts and the companion plates were separated, and apical and basolateral samples diluted for analysis. Test compound permeability was assessed in duplicate. Compounds of known permeability characteristics were run as controls on each assay plate.
Test and control compounds were quantified by LC-MS/MS cassette analysis using a 7-point calibration with appropriate dilution of the samples. Cyprotex generic analytical conditions were used. The starting concentration (CO) was determined from the dosing solution and the experimental recovery calculated from CO and both apical and basolateral compartment concentrations.
The integrity of the polarised cell monolayers throughout the experiment was checked by monitoring lucifer yellow permeation using fluorometric analysis. Permeation of this paracellular marker is low if monolayers have not been damaged. […] If this was not the case, then the result from the affected monolayer was excluded.
The determined concentration (nM≡pmol/mL) of each test sample receiver well is multiplied by the volume of the receiver compartment (apical=0.09 mL, basolateral=0.210 mL) to calculate the amount (pmol) of probe substrate permeating the monolayer.
Where dQ/dt is the rate of permeation of the drug across the cells, C0 is the donor compartment concentration at time zero and A is the area of the cell monolayer. C0 was obtained from analysis of the dosing solution.
An efflux ratio (ER) was calculated from mean A to B and B to A data. This is derived from:
Percentage recovery (mass balance) of the test compound or positive control substrate was calculated by dividing the sum of the amount (pmol) in the receiver and donor compartments post-incubation by the amount in the initial donor solution at time zero (C0) and expressing as a percentage.
The insert was inserted into the well of a plate to form an Apical chamber (above cells) and basolateral chamber (below cells), with a permeable membrane between the two layers. Compound was then added to either the apical or basolateral chamber and the passage of it monitored into the other chamber. Transfer of the test compound from the apical to basolateral chamber was indicative of cellular uptake, simulating transition of the compound from the intestinal lumen to the bloodstream by uptake receptors (Direction A). […] An Efflux ratio was then calculated from the values obtained for A2B and B2A transmission.

[2] = tested on: Neonatal rat cardiomyocytes; assay: Screening purified venom fractions for rat cardiomyocyte toxicity (resazurin); format: cell-based
Experimental: (§1) Hearts were collected from euthanised 1-2-day old neonatal rat pups and transferred into filter sterilised ice-cold Hanks balanced salt solution (HBSS) containing 2% Pen-strep. Hearts were washed in the HBSS, any non-heart tissue removed and then cut into 1-3 mm pieces and placed in 40 ml filter sterilised, ice cold 0.1% trypsin/HBSS. The heart pieces in trypsin were place in a large ice bucket and incubated overnight at 4° C. on a rocker with gentle agitation to allow the tissue to digest.
The following day, all trypsin was aspirated from the tissue and the tissue transferred evenly into 2 ml Eppendorf tubes. The tissue was then digested further using a 37° C. 1 mg/ml collagenase/HBSS (filter sterilised) solution. […]
(§2) Neonatal rat cardiomyocytes and cardiac fibroblasts were treated with purified venom fractions suspected of being cardiotoxins at doses of 12.5, 7.5, 6 μg/ml, with rat cardiomyocytes being treated at additional concentrations of 3.5, 2.5, 1 and 0.5 μg/ml for 2 hs in a humidified incubator at 37° C., 5% CO2. […] The change in fluorescence of the resazurin dye was monitored over a 5 h timeframe using a BMG Fluostar plate reader. Percent inhibition of both cell types in response to each fraction at each dose were calculated and plotted graphically.

[3] = tested on: neonatal rat cardiac fibroblast cells; assay: Screening purified venom fractions for rat cardiac fibroblast toxicity (resazurin); format: cell-based
Experimental: as §1
The following day, all trypsin was aspirated from the tissue and the tissue transferred evenly into 2 ml Eppendorf tubes. The tissue was then digested further using a 37° C. 1 mg/ml collagenase/HBSS (filter sterilised) solution. For each collagenase digestion, 2 ml of enzyme buffer was added to all Eppendorf tubes and the tubes incubated in a 37° C. heating block for 2 mins with 400 rpm agitation. The supernatant from the first two digestions was discarded. After each of the following digestion steps, the tissue was gently triturated using a pipette to release cells. Once trituration was complete the supernatant was retained, added to a tube containing 10 ml cell culture media and stored on ice.
All cell containing supernatants were filtered through a 250 μm cell strainer to remove any potentially undigested tissue and myocytes separated from cardiac fibroblast by spinning the supernatant at 1800 g for 45 mins through a Percoll gradient. […]
as §2

[4] = tested on: Neonatal rat cardiomyocytes; assay: Screening purified venom fractions for alterations to cardiomyocyte beat rates; format: cell-based; settings: for Highest Achieved Fold Increases in Beat Rate: 1 h; for fold increases to beat rate: dose of 6 μg/ml
Experimental: Neonatal rat cardiomyocytes were isolated as via standard protocol and seeded at a density of 100,000 cells/96 well. Once myocyte cultures were beating spontaneously in uniform sheets, they were videoed well-by-well using a microscope camera to determine pre-dose beat rates/min. […] Cells were incubated in each fraction in a humidified incubator at 37° C., 5% CO2 for 1 h. After 1 h videos of the cells were re-recorded to obtain the post-dosing beat rate/minute. Fold changes in beat frequency were calculated for each dosed well pair.

[5] = tested on: Human IPSC-derived cardiomyocytes; assay: Six lead fractions: toxicity to human IPSC-derived cardiomyocytes (resazurin); format: cell-based; settings: for cytotoxicity against human IPSC-derived cardiomyocytes: 7.5, 6, 3.5, 2.5 and 1 μg/ml, 2 h, FIG. 3
Experimental: Human IPSC-derived cardiomyocytes were purchased from Axol Biosciences and cultured as via their standard methodology. Briefly, cells were recovered from liquid nitrogen storage when required and the cells transferred dropwise into 10 ml of pre-warmed (37° C.) plating media (cardiomyocyte maintenance media+10% FCS+10 μM ROCK inhibitor). Cells were centrifuged at 200×g for 5 mins at room temperature. The supernatant was aspirated from the cell pellet and the cell pellet gently resuspended in 1 ml plating media. Cells were counted using a haemocytometer and trypan blue staining. Cells were plated at a seeding density of 10-20,000 cells/well in fibronectin pre-coated 384 well plates. Cells were incubated at 37° C., 5% CO2 in a humidified incubator overnight before the plating media was removed the following day and replace with fresh maintenance media (No FCS, no ROCK inhibitor). Partial media changes were performed every 2-days until cells formed a single continuous sheet of spontaneously beating cardiomyocytes (7-10 day in culture).
Once beating spontaneously, cells were treated with the six lead fractions diluted in maintenance media to final working concentrations of 7.5, 6, 3.5, 2.5 and 1 μg/ml. 30 μl of each fraction dilution was added to triplicate wells of cells and incubated for 2 h at 37° C., 5% CO2 in a humidified incubator. After 2 h, resazurin dye at a final working concentration of 160 μM were added to all wells and the change in fluorescence of the plate monitored over a 5 h timeframe using a BMG Labtech Fluostar plate reader. Percent toxicity was calculated from triplicate wells at each dose and plotted graphically.
Human IPSC derived cardiomyocytes were dosed in triplicate with a serial dilution of each of the six venom fractions (7.5, 6, 3.5, 2.5 and 1 μg/ml) for 2 hs at 37° C., 5% CO2 before resazurin dye was added and the change in colour and fluorescence monitored for the following 5 hrs. Percentage toxicity was calculated for each fraction at all doses and plotted graphically (FIG. 3).

[6] = tested on: rat neonatal cardiomyocyte cells; format: cell-based; settings: 6 μg/ml, rat cardiomyocytes
Experimental: Thermal stability of the six lead fractions was investigated. Aliquots of each fraction were heated in a heat block to 37° C. (unheated), 60° C., 80° C. and 100° C. before being used to treat rat neonatal cardiomyocyte cells at a dose of 6 μg/ml. Cardiomyocyte toxicity was assessed after 24 hrs of dosing at each temperature against a similar aliquot of each fraction that had been unheated before dosing. After 24 h, 160 μM Resazurin dye was added to all cells and the change in cardiomyocyte cell viability/metabolism monitored every hour up to 5 h post dye addition. An additional measurement was recorded 24 hs after the dye had been added.

[7] = any of the tested doses, up to 12.5 μg/ml

Compound: O=c1oc2ccccc2c(O)c1C1CC(c2ccc(-c3ccc(Br)cc3)cc2)Cc2ccccc21 (stereo not shown) [Brodifacoum, 3-[3-(4′-bromobiphenyl-4-yl)-1,2,3,4-tetrahydronaphth-1-yl]-4-hydroxycoumarin]
- time present in dog faeces after a single ingestion [1]: more than 700 days

Compound: O=c1oc2ccccc2c(O)c1C1CC(c2ccc(-c3ccccc3)cc2)Cc2ccccc21 (stereo not shown) [Difenacoum, 3-[3-p-diphenyl-1,2,3,4-hydronaphth-1-yl]-4-hydroxycoumarin]
- time present in dog faeces after a single ingestion [1]: > 650 days

Compound: C[C@]12CC[C@@H]3c4ccc(OS(=O)(=O)O)cc4CC[C@H]3[C@@H]1CCC2=O [Estrone 3-sulfate, estrone 3-sulfate]
- Mean % Recovery (Caco-2 cells; A2B): 68.6%
- Papp Mean (Caco-2 cells; A2B, 120 min, pH 7.4): 0.225 ×10^−6 cms^−1
- Papp Rep 1 (Caco-2 cells; A2B, 120 min, pH 7.4): 0.225 ×10^−6 cms^−1
- Mean % Recovery (Caco-2 cells; B2A): 85.7%
- Papp Mean (Caco-2 cells; B2A, 120 min, pH 7.4): 34.9 ×10^−6 cms^−1
- Papp Rep 1 (Caco-2 cells; B2A, 120 min, pH 7.4): 33.1 ×10^−6 cms^−1
- Papp Rep 2 (Caco-2 cells; B2A, 120 min, pH 7.4): 36.6 ×10^−6 cms^−1
- ER (efflux ratio) (Caco-2 cells; from mean A to B and B to A data): 155 ^b

Compound: N.aan_I15_R4 (LKCHKLVPPVWKTCPEGKNLCYKMFMVSTSTVPVKRGCIDVCPKDSALVKYVCCSTDKCN)
- toxicity to rat cardiomyocytes (in words) [2, 7]: no visibly or detectible toxicity
- toxicity to cardiac fibroblasts (in words) [3, 7]: no visibly or detectible toxicity
- Highest Achieved Fold Increases in Beat Rate ([4]; Dose 6 μg/ml): 3.50 fold
- fold increases to beat rate [4]: greater than 3.5 fold
- cytotoxicity against human IPSC-derived cardiomyocytes [5]: no observable cardiomyocyte cellular toxicity
- cytotoxicity against human IPSC-derived cardiomyocytes ([5]; listed as N.ann_I15_R4): low levels of cytotoxicity
- reduction of cardiomyocyte toxicity after heating ([6]; fraction heated at 100° C. vs 37° C., 24 h): ~10%

Compound: N.atr_I28_R3 (LKCNKLVPLFYKTCPAGKNLCYKMFMVSNLTVPVKRGCIDVCPKSSLLVKYVCCNTDRCN)
- Highest Achieved Fold Increases in Beat Rate ([4]; Dose 6 μg/ml): 5.35 fold
- fold increases to beat rate [4]: greater than 5 fold
- toxicity in human IPSC-derived cells compared to rodent cardiomyocytes ([5]; 3.5 μg/ml): reduction in toxicity

Compound: N.naj_I25_R3 (LKCNKLVPLFYKTCPAGKDLCYKMYMVATPKVPVKRGCIDVCPKSSLLVKYVCCNTDRCN)
- doses showing rat cardiomyocyte toxicity ([2]; neonatal rat cardiomyocytes): ≥ 6 µg/mL
- doses showing cardiac fibroblast toxicity ([3]; neonatal rat cardiac fibroblasts): 12.5 µg/mL
- Highest Achieved Fold Increases in Beat Rate ([4]; Dose 3.5 μg/ml): 13.75 fold
- fold increases to beat rate [4]: greater than 8.5 fold
- thermal stability (change in cytotoxic activity after heating) ([6]; 37, 60, 80, 100° C., FIG. 4): no significant changes in the activity
